Measurements published in patent EP0238178B1, “Novel derivatives of erythromycylamine” (ELI LILLY AND COMPANY, priority 1986, dated 1987).
In brackets after ≈: the same amount, converted by molar mass. Where two headings read alike, the source gives them in different places.

Columns and labels:
[1] = tested on: Staphylococcus aureus X1.1; test: MIC, standard agar-dilution assay; assay type: cell-based
[2] = tested on: Staphylococcus aureus V41; test: MIC, standard agar-dilution assay; assay type: cell-based
Source text: (§1) In addition to excellent in vitro activity against erythromycin-sensitive bacteria, several members of this new series have shown in vitro activity against erythromycin-resistant strains. These include strains which are inducibly-resistant to erythromycin (S.. aureus V41 and X400 and S. epidermidis EPI1) and even strains which are constitutively-resistant (S. epidermidis 270).

[3] = tested on: Staphylococcus aureus X400; test: MIC, standard agar-dilution assay; assay type: cell-based
Source text: as §1

[4] = tested on: Staphylococcus aureus S13E; test: MIC, standard agar-dilution assay; assay type: cell-based
[5] = tested on: Staphylococcus epidermidis 222; test: MIC, standard agar-dilution assay; assay type: cell-based
[6] = tested on: Streptococcus pyogenes C203; test: MIC, standard agar-dilution assay; assay type: cell-based
[7] = tested on: Streptococcus pneumoniae Park I; test: MIC, standard agar-dilution assay; assay type: cell-based
[8] = tested on: Streptococcus sp. group D X66; test: MIC, standard agar-dilution assay; assay type: cell-based
[9] = tested on: Streptococcus sp. group D 2041; test: MIC, standard agar-dilution assay; assay type: cell-based
[10] = tested on: Haemophilus influenzae C.L.; test: MIC, standard agar-dilution assay; assay type: cell-based; conditions: Ampicillin-sensitive strain
[11] = tested on: Haemophilus influenzae 76; test: MIC, standard agar-dilution assay; assay type: cell-based; conditions: Haemophilus influenzae 76, Ampicillin-resistant strain
Escherichia coli EC14 = test: MIC, standard agar-dilution assay; assay type: cell-based
[12] = tested on: Klebsiella pneumoniae X68; test: MIC, standard agar-dilution assay; assay type: cell-based
Staphylococcus aureus = test: Experimental bacterial infection in mice, ED50; assay type: in vivo; conditions: Staphylococcus aureus, two doses, dose protecting 50% of animals
Method: (§2) The new derivatives of this invention have also shown in vivo antimicrobial activity against experimental bacterial infections. When two doses of test compound were administered to mice in experimental infections, the activity observed was measured as an EDso value [effective dose in mg/kg to protect 50% of the test animals: see Warren Wick, et al., J. Bacteriol. 81, 233-235 (1961)].

Streptococcus pneumoniae = test: Experimental bacterial infection in mice, ED50; assay type: in vivo; conditions: Streptococcus pneumoniae, po, two doses, dose protecting 50% of animals, read-out: Oral ED50
Method: as §2

Streptococcus pyogenes = test: Experimental bacterial infection in mice, ED50; assay type: in vivo; conditions: Streptococcus pyogenes, po, two doses, dose protecting 50% of animals, read-out: Oral ED50
Method: as §2

[13] = tested on: Staphylococcus epidermidis EPI1; test: MIC, standard agar-dilution assay; assay type: cell-based
Source text: as §1

[14] = Staphylococcus aureus V41, Penicillin-resistant strain, inducibly-resistant to erythromycin, read-out: MIC
[15] = Staphylococcus aureus X400, Methicillin-resistant strain, inducibly-resistant to erythromycin, read-out: MIC
[16] = Streptococcus sp. group D X66, read-out: MIC
[17] = sc, subcutaneous, read-out: Subcutaneous ED50

| Compound | MIC [4] | MIC ([1]; read-out: MIC) | MIC [2, 14] | MIC [3, 15] | MIC ([5]; read-out: MIC) | MIC ([6]; read-out: MIC) | MIC ([7]; read-out: MIC) | MIC [8, 16] | MIC ([9]; read-out: MIC) | MIC ([10]; read-out: MIC) | MIC ([11]; read-out: MIC) | MIC (Escherichia coli EC14; read-out: MIC) | MIC ([12]; read-out: MIC) | ED50 (Staphylococcus aureus; po, read-out: Oral ED50) | ED50 (Streptococcus pneumoniae) | ED50 (Streptococcus pyogenes) | MIC [13] | further results |
| --- | --- | --- | --- | --- | --- | --- | --- | --- | --- | --- | --- | --- | --- | --- | --- | --- | --- | --- |
| 9-Deoxo-9-[(5-dimethylamino-2-pentyl)amino]-9,11-1N,O)-cyclic. Methylene Adduct of Erythromycin [Compound 63] | 8 µg/mL |  |  |  |  |  |  |  |  |  |  |  |  |  |  |  |  | MIC [1]: 8 µg/mL; MIC ([2]; Staphylococcus aureus V41, Penicillin-resistant strain, inducibly-resistant to erythromycin): – (– = >128); MIC ([3]; Staphylococcus aureus X400, Methicillin-resistant strain, inducibly-resistant to erythromycin): – (– = >128); MIC [5]: 8 µg/mL; MIC [6]: 0.5 µg/mL; MIC [7]: 0.5 µg/mL; MIC ([8]; Streptococcus sp. group D X66): 2 µg/mL; MIC [9]: 32 µg/mL; MIC [10]: 8 µg/mL; MIC [11]: 8 µg/mL; MIC (Escherichia coli EC14): 32 µg/mL; MIC [12]: 128 µg/mL |
| CCC(CC)CN[C@@H]1[C@H](C)[C@@H](O)[C@](C)(O)[C@@H](CC)OC(=O)[C@H](C)[C@@H](O[C@H]2C[C@@](C)(OC)[C@@H](O)[C@H](C)O2)[C@H](C)[C@@H](O[C@@H]2O[C@H](C)C[C@H](N(C)C)[C@H]2O)[C@](C)(O)C[C@H]1C [Compound 12, 9-Deoxo-9-[(2-ethylbutyl)amino]erythromycin] | 0.25 µg/mL (≈ 0.305 µM) | 0.5 µg/mL (≈ 0.61 µM) | 16 µg/mL (≈ 19.5 µM) | 16 µg/mL (≈ 19.5 µM) | 0.5 µg/mL (≈ 0.61 µM) | 0.015 µg/mL (≈ 0.0183 µM) | 0.015 µg/mL (≈ 0.0183 µM) | 0.125 µg/mL (≈ 0.153 µM) | 8 µg/mL (≈ 9.77 µM) | 2 µg/mL (≈ 2.44 µM) | 2 µg/mL (≈ 2.44 µM) | 64 µg/mL (≈ 78.1 µM) | 32 µg/mL (≈ 39.1 µM) | 22.3 mg/kg | 16.6 mg/kg | 9.4 mg/kg |  |  |
| CC[C@H]1OC(=O)[C@H](C)[C@@H](O[C@H]2C[C@@](C)(OC)[C@@H](O)[C@H](C)O2)[C@H](C)[C@@H](O[C@@H]2O[C@H](C)C[C@H](N(C)C)[C@H]2O)[C@](C)(O)C[C@@H](C)[C@H]2[C@H](C)[C@@H](OCN2C(C)C)[C@]1(C)O [Compound 58, 9-Deoxo-9-[isopropylamino]-9,11-(N,O)-cyclic Methylene Adduct of Erythromycin] | 1 µg/mL (≈ 1.27 µM) | 1 µg/mL (≈ 1.27 µM) |  |  | 0.5 µg/mL (≈ 0.634 µM) | 0.125 µg/mL (≈ 0.158 µM) | 0.06 µg/mL (≈ 0.076 µM) | 0.25 µg/mL (≈ 0.317 µM) | 4 µg/mL (≈ 5.07 µM) | 4 µg/mL (≈ 5.07 µM) | 4 µg/mL (≈ 5.07 µM) | 32 µg/mL (≈ 40.6 µM) | 64 µg/mL (≈ 81.1 µM) |  | 5.7 mg/kg | 6.7 mg/kg | 128 µg/mL (≈ 162 µM) | MIC ([2]; Staphylococcus aureus, V41): > 128 µg/mL; MIC ([3]; Staphylococcus aureus, X400): > 128 µg/mL; ED50 (Staphylococcus aureus; [17]): > 10 mg/kg |
| CCCN1CO[C@@H]2[C@@H](C)[C@@H]1[C@H](C)C[C@@](C)(O)[C@H](O[C@@H]1O[C@H](C)C[C@H](N(C)C)[C@H]1O)[C@@H](C)[C@H](O[C@H]1C[C@@](C)(OC)[C@@H](O)[C@H](C)O1)[C@@H](C)C(=O)O[C@H](CC)[C@@]2(C)O [Compound 59] | 0.125 µg/mL (≈ 0.158 µM) | 0.25 µg/mL (≈ 0.317 µM) | 8 µg/mL (≈ 10.1 µM) | 8 µg/mL (≈ 10.1 µM) |  | < 0.008 µg/mL | < 0.008 µg/mL |  | 1 µg/mL (≈ 1.27 µM) | 1 µg/mL (≈ 1.27 µM) | 2 µg/mL (≈ 2.53 µM) | 32 µg/mL (≈ 40.6 µM) | 128 µg/mL (≈ 162 µM) | 7.2 mg/kg | 5 mg/kg | 4.8 mg/kg | > 128 µg/mL | MIC [5]: 0.125 µg/mL (≈ 0.158 µM); MIC ([8]; Streptococcus): 0.125 µg/mL (≈ 0.158 µM) |
| CC[C@H]1OC(=O)[C@H](C)[C@@H](O[C@H]2C[C@@](C)(OC)[C@@H](O)[C@H](C)O2)[C@H](C)[C@@H](O[C@@H]2O[C@H](C)C[C@H](N(C)C)[C@H]2O)[C@](C)(O)C[C@@H](C)[C@H]2[C@H](C)[C@@H](OCN2C2CCCC2)[C@]1(C)O [Compound 60] | 2 µg/mL (≈ 2.45 µM) | 1 µg/mL (≈ 1.23 µM) | > 128 µg/mL | > 128 µg/mL | 1 µg/mL (≈ 1.23 µM) | 0.125 µg/mL (≈ 0.153 µM) | 0.06 µg/mL (≈ 0.0736 µM) | 0.5 µg/mL (≈ 0.613 µM) | 8 µg/mL (≈ 9.81 µM) | 4 µg/mL (≈ 4.91 µM) | 4 µg/mL (≈ 4.91 µM) | 64 µg/mL (≈ 78.5 µM) | 64 µg/mL (≈ 78.5 µM) | > 50 mg/kg | 9 mg/kg | 10.2 mg/kg | > 128 µg/mL | ED50 (Staphylococcus aureus; [17]): 5 mg/kg |
| CC[C@H]1OC(=O)[C@H](C)[C@@H](O[C@H]2C[C@@](C)(OC)[C@@H](O)[C@H](C)O2)[C@H](C)[C@@H](O[C@@H]2O[C@H](C)C[C@H](N(C)C)[C@H]2O)[C@](C)(O)C[C@@H](C)[C@H]2[C@H](C)[C@@H](OCN2Cc2ccccc2)[C@]1(C)O [Compound 62, 9-Deoxo-9-[(benzyl)amino]-9,11-(N.O)-cyclic Methylene Adduct of Erythromycin] | 1 µg/mL (≈ 1.19 µM) | 1 µg/mL (≈ 1.19 µM) | 64 µg/mL (≈ 76.5 µM) | 128 µg/mL (≈ 153 µM) | 0.5 µg/mL (≈ 0.597 µM) | 0.125 µg/mL (≈ 0.149 µM) | 0.06 µg/mL (≈ 0.0717 µM) | 0.5 µg/mL (≈ 0.597 µM) | 4 µg/mL (≈ 4.78 µM) | 4 µg/mL (≈ 4.78 µM) | 4 µg/mL (≈ 4.78 µM) | > 128 µg/mL | > 128 µg/mL | > 50 mg/kg | 15.2 mg/kg | 15.6 mg/kg | 64 µg/mL (≈ 76.5 µM) |  |
| CC[C@H]1OC(=O)[C@H](C)[C@@H](O[C@H]2C[C@@](C)(OC)[C@@H](O)[C@H](C)O2)[C@H](C)[C@@H](O[C@@H]2O[C@H](C)C[C@H](N(C)C)[C@H]2O)[C@](C)(O)C[C@@H](C)[C@H](N(C)C)[C@H](C)[C@@H](O)[C@]1(C)O [Compound 69, 9-Deoxo-9-(dimethylamino)erythromycin] | 2 µg/mL (≈ 2.62 µM) | 4 µg/mL (≈ 5.24 µM) | 64 µg/mL (≈ 83.9 µM) | 64 µg/mL (≈ 83.9 µM) | 2 µg/mL (≈ 2.62 µM) | 0.25 µg/mL (≈ 0.328 µM) |  | 0.5 µg/mL (≈ 0.655 µM) | 4 µg/mL (≈ 5.24 µM) | 2 µg/mL (≈ 2.62 µM) | 8 µg/mL (≈ 10.5 µM) | 128 µg/mL (≈ 168 µM) | > 128 µg/mL | > 43.8 mg/kg | 43.5 mg/kg | 21.9 mg/kg | > 128 µg/mL |  |
| CC[C@H]1OC(=O)[C@H](C)[C@@H](O[C@H]2C[C@@](C)(OC)[C@@H](O)[C@H](C)O2)[C@H](C)[C@@H](O[C@@H]2O[C@H](C)C[C@H](N(C)C)[C@H]2O)[C@](C)(O)C[C@@H](C)[C@H](N(C)C(C)C)[C@H](C)[C@@H](O)[C@]1(C)O [Compound 70, 9-Deoxo-9-[(N-methyl-N-isopropyl)amino]erythromycin] | 8 µg/mL (≈ 10.1 µM) | 8 µg/mL (≈ 10.1 µM) | > 128 µg/mL | > 128 µg/mL | 8 µg/mL (≈ 10.1 µM) | 0.5 µg/mL (≈ 0.632 µM) | 0.5 µg/mL (≈ 0.632 µM) | 2 µg/mL (≈ 2.53 µM) | 32 µg/mL (≈ 40.5 µM) | 32 µg/mL (≈ 40.5 µM) | 32 µg/mL (≈ 40.5 µM) | > 128 µg/mL | > 128 µg/mL |  |  |  | > 128 µg/mL |  |
